{"source": "patent US8586556B2", "about": "“Methods, compositions and drug delivery systems for intraocular delivery of siRNA molecules” (Allergan, Inc., priority 2006, dated 2013)", "tested_on": "neovascularization", "experiment": "Placement of the drug delivery systems into the vitreous of an eye: duration of therapeutic benefit", "format": "in vivo", "details": "drug delivery system placed into the vitreous of an eye", "text": "(§1) Drug delivery systems which comprise about 86.1 milligrams of Cand5 can be produced similar to those systems described in Examples 1. Such drug delivery systems release Cand5 at a rate from about 49.7 micrograms per day to about 4970 micrograms per day. The release rates can be measured using in vitro and/or in vivo assays as described above. […] Improvements in patient function, such as vision and intraocular pressure, can be observed at longer time periods.\nas §1, with “siRNA Z” for “Cand5”, “1, above.” for “1.”", "data": [{"substance": "Cand5: siRNA from Acuity Pharmaceuticals/Avecia that silences genes producing VEGF; sense SEQ ID NO: 3, antisense SEQ ID NO: 4 (sense ACCUCACCAAGGCCAGCAC; antisense GUGCUGGCCUUGGUGAGGU; listed as RNA, chemistry not fully specified; listed as Homo Sapiens)", "values": [{"measurement": "duration of therapeutic benefits, such as the treatment of neovascularization, after a single administration", "value": "at least about thirty days"}]}]}
